Measurements published in article PMC9768162, “Synthesis of macrocyclic nucleoside antibacterials and their interactions with MraY” (Nature Communications, 2022).
Converted amounts (≈) assume the structure as drawn. Where two headings read alike, the source gives them in different places. Marks after values point to notes of the source that are not given here.

Key:
E. cloacae [1] = assay: Antibacterial activity, MIC by microdilution broth method (CLSI); format: cell-based; settings: Enterobacter cloacae, ATCC13047; E. cloacae ATCC 13047; CA-MHB, 37 °C, 20 h
S. aureus [2] = assay: as above; format: cell-based, Staphylococcus aureus; settings: Staphylococcus aureus
E. faecium [3] = assay: as above; format: cell-based, Enterococcus faecium; settings: for MIC: Enterococcus faecium, read-out: MIC
A. baumannii [4] = assay: as above; format: cell-based; settings: Acinetobacter baumannii, ATCC19606; A. baumannii ATCC 19606; CA-MHB, 37 °C, 20 h
E. coli = assay: as above; settings: E. coli ATCC 25922; CA-MHB, 37 °C, 20 h
[5] = target: T1, MraYSA (S. aureus MraY enzyme) (Staphylococcus aureus, UniProt Q2FZ93); assay: Fluorescence-based MraY inhibitory assay (dansylated Park's nucleotide); settings: for MraYSA activity, source data of Fig. 7b, average: average of n=1-3
T1 sequence (Q2FZ93 1-321): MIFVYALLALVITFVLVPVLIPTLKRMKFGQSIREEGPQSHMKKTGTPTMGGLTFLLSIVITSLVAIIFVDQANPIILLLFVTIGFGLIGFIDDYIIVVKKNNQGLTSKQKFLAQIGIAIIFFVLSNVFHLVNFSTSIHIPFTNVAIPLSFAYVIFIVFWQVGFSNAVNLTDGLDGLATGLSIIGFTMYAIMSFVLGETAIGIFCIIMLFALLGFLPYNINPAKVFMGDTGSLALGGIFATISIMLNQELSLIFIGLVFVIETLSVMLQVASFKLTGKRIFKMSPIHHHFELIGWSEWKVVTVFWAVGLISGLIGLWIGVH

K. pneumoniae [6] = assay: Antibacterial activity, MIC by microdilution broth method (CLSI); format: cell-based; settings: Klebsiella pneumoniae, ATCC13883; K. pneumoniae ATCC 13883; CA-MHB, 37 °C, 20 h
M. avium = assay: MIC in 7H9 liquid medium, 2 weeks; format: cell-based; settings: Mycobacterium avium, ATCC25291, 336 h, M. avium ATCC 25291, 37 °C, minimum concentration inhibiting at least 50% of growth
M. tuberculosis = assay: MIC in 7H9 liquid medium, 2 weeks; format: cell-based; settings: Mycobacterium tuberculosis, 336 h, M. tuberculosis H37Rv, 37 °C, minimum concentration inhibiting at least 50% of growth
P. aeruginosa [7] = assay: Antibacterial activity, MIC by microdilution broth method (CLSI); format: cell-based; settings: Pseudomonas aeruginosa, ATCC27853; P. aeruginosa ATCC 27853; CA-MHB, 37 °C, 20 h
E. faecalis [8] = assay: as above; format: cell-based; settings: for MIC: Enterococcus faecalis
[9] = tested on: vancomycin-resistant Enterococci (VRE), clinically isolated E. faecium and E. faecalis; format: cell-based; settings: VRE E. faecium ATCC 51559, 51858, E. faecalis 51299 and clinically isolated E. faecium and E. faecalis
A. baumannii [10] = tested on: A. baumannii; design: method as in PMID 24014169; settings: A. baumannii ATCC 19606; cited from earlier work
E. cloacae [11] = tested on: E. cloacae; design: method as in PMID 24014169; settings: E. cloacae ATCC 13047; cited from earlier work
S. aureus [12] = settings: S. aureus ATCC 6538P, cited from earlier work
K. pneumoniae [13] = tested on: K. pneumoniae; design: method as in PMID 24014169; settings: K. pneumoniae ATCC 13883; cited from earlier work
Gram-positive bacteria = tested on: Gram-positive bacteria; design: method as in PMID 24014169; settings: range over strains; cited from earlier work
MraY (E. coli) = tested on: MraY (E. coli); design: method as in PMID 24014169; settings: cited from earlier work
E. faecium [14] = tested on: E. faecium; design: method as in PMID 24014169; settings: cited from earlier work
P. aeruginosa [15] = tested on: P. aeruginosa; design: method as in PMID 24014169; settings: P. aeruginosa ATCC 15692 (footnote e); cited from earlier work
E. faecalis [16] = tested on: E. faecalis; design: method as in PMID 24014169; settings: E. faecalis ATCC 29212; cited from earlier work

## CCCCCCCCCCCCCCCC(=O)O[C@@H]1C[C@@H]2CN(C1)[C@H](C(=O)O)[C@@H]([C@H]1O[C@@H](n3ccc(=O)[nH]c3=O)[C@H](O)[C@@H]1O)O[C@@H]1O[C@H](CN2)[C@@H](O)[C@H]1O [SPM-3]
E. cloacae [1]
  MIC: > 64 µg/mL
S. aureus [2]; ATCC29213, 20 h, S. aureus ATCC 29213, CA-MHB, 37 °C, 20 h
  MIC: 8 µg/mL (≈ 10.4 µM)
S. aureus [2]; MRSA, 20 h, S. aureus (MRSA) JE2, CA-MHB, 37 °C, performed once
  MIC: 8 µg/mL (≈ 10.4 µM)
S. aureus [2]; MRSA, clinically isolated MRSA #1958
  MIC: 16 µg/mL (≈ 20.8 µM)
S. aureus [2]; MRSA, clinically isolated MRSA #2071
  MIC: 16 µg/mL (≈ 20.8 µM)
S. aureus [2]; MRSA, clinically isolated MRSA #2110
  MIC: > 64 µg/mL
S. aureus [2]; MRSA, clinically isolated MRSA #2310
  MIC: 32 µg/mL (≈ 41.6 µM)
S. aureus [2]; MRSA, clinically isolated MRSA #2334
  MIC: > 64 µg/mL
S. aureus [2]; MRSA, clinically isolated MRSA #2931
  MIC: 4 µg/mL (≈ 5.2 µM)
S. aureus [2]; MRSA, clinically isolated MRSA #2932
  MIC: 32 µg/mL (≈ 41.6 µM)
S. aureus [2]; MRSA, clinically isolated MRSA #2933
  MIC: 8 µg/mL (≈ 10.4 µM)
S. aureus [2]; MRSA, clinically isolated MRSA #2934
  MIC: 8 µg/mL (≈ 10.4 µM)
S. aureus [2]; MRSA, clinically isolated MRSA #2935
  MIC: 32 µg/mL (≈ 41.6 µM)
E. faecium [3]; ATCC35667, 20 h, E. faecium ATCC 35667, CA-MHB, 37 °C, 20 h
  MIC: 2 µg/mL (≈ 2.6 µM)
E. faecium [3]; ATCC 51559 / VRE, E. faecium (VRE) ATCC 51559
  MIC: 2 µg/mL (≈ 2.6 µM)
E. faecium [3]; ATCC 51858 / VRE, E. faecium (VRE) ATCC 51858
  MIC: 8 µg/mL (≈ 10.4 µM)
E. faecium [3]; clinically isolated E. faecium strain 1
  MIC: 2 µg/mL (≈ 2.6 µM)
E. faecium [3]; clinically isolated E. faecium strain 2
  MIC: 2 µg/mL (≈ 2.6 µM)
E. faecium [3]; clinically isolated E. faecium strain 3
  MIC: 4 µg/mL (≈ 5.2 µM)
E. faecium [3]; clinically isolated E. faecium strain 4
  MIC: 1 µg/mL (≈ 1.3 µM)
E. faecium [3]; clinically isolated E. faecium strain 5
  MIC: 2 µg/mL (≈ 2.6 µM)
E. faecium [3]; clinically isolated E. faecium strain 7
  MIC: 2 µg/mL (≈ 2.6 µM)
E. faecium [3]; clinically isolated E. faecium strain 8
  MIC: 2 µg/mL (≈ 2.6 µM)
E. faecium [3]; clinically isolated E. faecium strain 9
  MIC: 1 µg/mL (≈ 1.3 µM)
E. faecium [3]; clinically isolated E. faecium strain 10
  MIC: 1 µg/mL (≈ 1.3 µM)
E. faecium [3]; clinically isolated E. faecium strain 11
  MIC: 4 µg/mL (≈ 5.2 µM)
E. faecium [3]; clinically isolated E. faecium strain 13
  MIC: 1 µg/mL (≈ 1.3 µM)
E. faecium [3]; clinically isolated E. faecium strain 14
  MIC: 0.5 µg/mL (≈ 0.65 µM)
E. faecium [3]; clinically isolated E. faecium strain 15
  MIC: 2 µg/mL (≈ 2.6 µM)
E. faecium [3]; clinically isolated E. faecium (14 strains)
  MIC (range over strains): 0.5 to 4 µg/mL
A. baumannii [4]
  MIC: > 64 µg/mL
E. coli
  MIC: >64 µg/mL
[5]
  IC50: 41 nM
[5]; compound 0.0001 µM
  MraYSA activity, source data of Fig. 7b, average: 97.0831
[5]; compound 0.001 µM
  MraYSA activity, source data of Fig. 7b, average: 91.2486
[5]; compound 0.01 µM
  MraYSA activity, source data of Fig. 7b, average: 63.9982
[5]; compound 0.1 µM
  MraYSA activity, source data of Fig. 7b, average: 42.189
[5]; compound 1 µM
  MraYSA activity, source data of Fig. 7b, average: 10.7538
[5]; compound 10 µM
  MraYSA activity, source data of Fig. 7b, average: 6.7446
[5]; compound 100 µM
  MraYSA activity, source data of Fig. 7b, average: 3.028
[5]; ratio of IC50 values, SPM-3 vs SPM-1
  fold weaker compared to SPM-1 (MraYSA IC50): 4.5 fold
K. pneumoniae [6]
  MIC: > 64 µg/mL
M. avium
  MIC: 4 µg/mL (≈ 5.2 µM)
M. tuberculosis
  MIC: 16 µg/mL (≈ 20.8 µM)
P. aeruginosa [7]
  MIC: > 64 µg/mL
E. faecalis [8]; ATCC 51299 / VRE, E. faecalis (VRE) ATCC 51299
  MIC: 1 µg/mL (≈ 1.3 µM)
E. faecalis [8]; clinically isolated E. faecalis strain 21
  MIC: 0.5 µg/mL (≈ 0.65 µM)
E. faecalis [8]; clinically isolated E. faecalis strain 22
  MIC: 0.5 µg/mL (≈ 0.65 µM)
E. faecalis [8]; clinically isolated E. faecalis strain 23
  MIC: 1 µg/mL (≈ 1.3 µM)
E. faecalis [8]; clinically isolated E. faecalis strain 24
  MIC: 1 µg/mL (≈ 1.3 µM)
E. faecalis [8]; clinically isolated E. faecalis strain 25
  MIC: 0.5 µg/mL (≈ 0.65 µM)
E. faecalis [8]; clinically isolated E. faecalis strain 26
  MIC: 0.5 µg/mL (≈ 0.65 µM)
E. faecalis [8]; clinically isolated E. faecalis strain 27
  MIC: 0.5 µg/mL (≈ 0.65 µM)
E. faecalis [8]; clinically isolated E. faecalis strain 28
  MIC: 1 µg/mL (≈ 1.3 µM)
E. faecalis [8]; clinically isolated E. faecalis strain 29
  MIC: 1 µg/mL (≈ 1.3 µM)
E. faecalis [8]; clinically isolated E. faecalis strain 30
  MIC: 0.5 µg/mL (≈ 0.65 µM)
E. faecalis [8]; clinically isolated E. faecalis strain 31
  MIC: 1 µg/mL (≈ 1.3 µM)
E. faecalis [8]; clinically isolated E. faecalis strain 32
  MIC: 1 µg/mL (≈ 1.3 µM)
E. faecalis [8]; clinically isolated E. faecalis strain 33
  MIC: 1 µg/mL (≈ 1.3 µM)
E. faecalis [8]; clinically isolated E. faecalis strain 34
  MIC: 0.5 µg/mL (≈ 0.65 µM)
E. faecalis [8]; clinically isolated E. faecalis strain 35
  MIC: 1 µg/mL (≈ 1.3 µM)
E. faecalis [8]; clinically isolated E. faecalis (15 strains)
  MIC (range over strains): 0.5 to 1 µg/mL
[9]
  MIC (range over strains): 0.5 to 8 µg/mL

## CCCC(C)CC(C)CC(C)CC(C)/C=C(C)/C=C/C(O)C(C)C(=O)OC1C(O)CN2CC1NC[C@H]1O[C@@H](O[C@H]([C@H]3O[C@@H](n4ccc(=O)[nH]c4=O)[C@H](O)[C@@H]3OS(=O)(=O)O)[C@H]2C(=O)O)[C@H](O)[C@@H]1O (stereo partly drawn) [Sphaerimicin A]
A. baumannii [10]
  MIC: >128 µg/mL
E. cloacae [11]
  MIC: >128 µg/mL
S. aureus [12]
  MIC: 4^d μg/mL
S. aureus [12]; listed as sphaerimicin A
  MIC: 4 µg/mL (≈ 4.1 µM)
K. pneumoniae [13]
  MIC: >128 µg/mL
Gram-positive bacteria
  MIC against Gram-positive bacteria: 1 to 16 µg/mL
MraY (E. coli)
  IC50: 13.9 nM
  IC50 for MraY: 0.0135 µg/mL
E. faecium [14]; (footnote c)
  MIC: 2^c μg/mL
E. faecium [14]; E. faecium ATCC 19434
  MIC: 2 µg/mL (≈ 2.05 µM)
P. aeruginosa [15]
  MIC: >128^e μg/mL
E. faecalis [16]
  MIC: 2 µg/mL (≈ 2.05 µM)
